This is an account of results in publication PMC7281419, “New Conjugates of Polyhydroxysteroids with Long-Chain Fatty Acids from the Deep-Water Far Eastern Starfish Ceramaster patagonicus and Their Anticancer Activity” (Marine Drugs, 2020).

Where two headings read alike, the source gives them in different places. Bounds are passed on as bounds.

The test system of data set [1] is human liver carcinoma HepG2 cells. Also noted: method as in PMID 20523000. The following applies: in vitro; cited from earlier work.
In data set [2] the test system is herpes simplex virus type 1 (HSV-1). Also noted: method as in PMID 20523000. The following applies: in vitro; cited from earlier work.
Data set [3] deals with HCT 116 cells. The data set can be described thus: Soft agar colony formation assay. Format: cell-based. The following applies: Homo sapiens, 336 h, 14 days. The procedure: (§1) The formation of colonies is one of the most stringent characteristics for malignant transformation in cells. In the present study the soft agar assay was used to investigate the effect of compounds 1–4 on capability of cancer cells to form colonies.
(§2) Figure 4 The effect of compounds 1–4 on colony formation in human cancer cells. MDA-MB-231 (A) or HCT 116 cells (B) (2.4 × 10^4) were treated with or without investigated compounds (20 µM) and applied onto 0.3% Basal Medium Eagle (BME) agar containing 10% FBS, 2 mM L-glutamine, and 25 µg/mL gentamicin. After 14 days of incubation, the number of colonies was evaluated under a microscope with the aid of the ImageJ software program. Results are expressed as the mean ± standard deviation (SD). The asterisks (** p < 0.01, *** p < 0.001) indicate a significant decrease in colony number of cancer cells treated by compounds compared with control.
(§3) To estimate the effects of 1–4 on colony formation (phenotype expression), MDA-MB-231 and HCT 116 cells (2.4 × 10^4 cells/200 µL) were treated equivalent volume of DMSO (control) or with compounds 1–4 (20 µM) in 1 mL of 0.3% Basal Medium Eagle (BME) agar containing 10% FBS, 2 mM L-glutamine, and 25 µg/mL gentamicin. The cultures were maintained in a 37 °C, 5% CO2 incubator for 14 days, and the cell colonies were scored using a Motic AE 20 microscope (XiangAn, Xiamen, China) and ImageJ software bundled with 64-bit Java 1.8.0_112 (NIH, Bethesda, MD, USA).

Data set [4] deals with MDA-MB-231 cells. Nature of the data set: Soft agar colony formation assay. The format is cell-based. The following applies: Homo sapiens, 336 h, 14 days. The procedure:
as §1, §2, §3

Another data set has as its system JB6 Cl41 cells. Nature of the data set: MTS cell viability assay (cytotoxic / cytostatic activity). The following applies: Mus musculus, 72 h incubation, read-out: concentration that caused 50% inhibition of growth (IC50). Format: cell-based, mouse. The procedure: (§4) At the first stage of biological activity evaluation, the cytotoxicity of compounds 1–4 against mouse normal epidermal JB6 Cl41 cells, human breast cancer MDA-MB-231 cells, and colorectal carcinoma HCT 116 cells was determined by MTS assay, which is based on the cleavage of (3-(4,5-dimethylthiazol-2-yl)-5-(3-carboxymethoxyphenyl)-2-(4-sulfophenyl)-2H-tetrazolium) (MTS reagent) into a formazan product soluble in tissue culture medium.
(§5) That is why the cytostatic activity of compounds 1–4 was determined against JB6 Cl41, MDA-MB-231, and HCT 116 cell lines for 24, 48, and 72 h. […] The cytostatic effect of 2 was more prominent in colorectal carcinoma HCT 116 cells.
(§6) Figure 3 The cytostatic activity of compounds 1–4 against normal epidermal JB6 Cl41 cells, breast cancer MDA-MB-231 cells, and colorectal carcinoma HCT 116 cells. (A) JB6 Cl41, (B) MDA-MB-231, or (C) HCT 116 cells were treated with compounds 1–4 at concentrations of 1–100 µM for 24, 48, and 72 h. Cell viability was estimated using the MTS assay. Data are represented as the mean ± SD as determined from triplicate experiments.
(§7) To determine the cytotoxicity of compounds 1–4, JB6 Cl41, MDA-MB-231, and HCT 116 cells (1.0 × 10^4) were seeded in 200 µL of complete MEM/5% FBS, DMEM/10% FBS, and McCoy’s 5A/10% FBS medium, respectively, and incubated for 24 h at 37 °C in 5% CO2 incubator. The attached cells were incubated with fresh medium containing various concentrations of 1–4 (0–100 µM) or equivalent volume of DMSO (control) for additional 24 h. Subsequently, the cells were incubated with 15 µL MTS reagent for 3 h, and the absorbance of each well was measured at 490/630 nm using Power Wave XS microplate reader (BioTek, Winooski, VT, USA). All experimental conditions were assessed in triplicate.
(§8) To determine the effect of compounds 1–4 on cell proliferation, the tested cell lines (8 × 10^3 cells/200 µL) were treated with tested compounds at concentrations of 1, 10, 50, and 100 µM or equivalent volume of DMSO (control) and incubated for additional 24, 48, and 72 h at 37 °C in 5% CO2. MTS reagent (20 µL) was added to each well, and the cells were incubated for additional 3 h in 5% CO2 incubator. Absorbance was measured at 490/630 nm by microplate reader. All experimental conditions were assessed in triplicate.
On the technique in general: Formazan colour is commonly taken as a measure of viable cells.

Test in data set [5]: as above
The format is cell-based, mouse. The following applies: mouse, JB6 Cl41 cells (normal epidermal), 100 µM, 24 h incubation, read-out: suppression of cell viability. The procedure:
as §4, §5, §6, §7, §8

Data set [6] has as its system HCT 116 cells. The description is as above. The format is cell-based, human. The following applies: for IC50: Homo sapiens, 72 h incubation, read-out: concentration that caused 50% inhibition of growth (IC50). The protocol: as §4, §5, §6, §7, §8
The test system of data set [7] is MDA-MB-231 cells. The description is as above. The following applies: for IC50: Homo sapiens, 72 h incubation, read-out: concentration that caused 50% inhibition of growth (IC50). The format is cell-based, human. The protocol: as §4, §5, §6, §7, §8
Test in data set [8]: as above
Format: cell-based, human. The following applies: human, 100 µM, 24 h incubation, read-out: suppression of cell viability. The procedure: as §4, §5, §6, §7, §8

In data set [9] the test system is HCT 116 cells. The data set can be described thus: Wound healing (cell migration) assay. The format is cell-based, human. The following applies: 20 µM, 48 h. The source says: (§9) The metastasis process is proven to be the leading cause of cancer-related death. Metastasis is a multistep process that includes migration and invasion of cancer cells, hallmarks of malignancy. Therefore, we investigated the ability of compounds 1–4 to inhibit the migration of breast cancer MDA-MB-231 cells and colorectal carcinoma HCT 116 cells with high metastatic potential. […] Compounds 1, 3, and 4 prevented HCT 116 cell migration by 36%, 30%, and 24%, respectively (Figure 5). […]
(§10) Figure 5 The effect of compounds 1–4 on migration of human cancer cells. MDA-MB-231 (A,B) and HCT 116 (C,D) cells migration distance was estimated by measuring the width of the wound and expressed as a percentage of each control for the mean of wound closure area. All experiments were repeated at least three times in each group (n = 18 for control and each compound, n—quantity of photos). The magnification of representative photos is ×10. Results are expressed as the mean ± standard deviation (SD). The asterisks (* p < 0.05, ** p < 0.01, *** p < 0.001) indicate a significant decrease in migration of cells treated with compounds compared with the control.
(§11) MDA-MB-231 and HCT 116 cells (3 × 10^5 cells/mL) were seeded into six-well plates and grown to 80% confluence for 24 h. After removing the culture medium, the cells’ monolayer was scraped with a 200 µL sterile pipette tip to create a straight scratch. Then, MDA-MB-231 and HCT 116 cells were treated with equivalent volume of DMSO (control) or 1–4 at concentration of 20 µM and incubated for 48 h. All experiments were conducted in triplicate for each group. For the image analysis, cell migration into the wound area was photographed at the stages of 0 and 48 h using a Motic AE 20 microscope and ImageJ software. The cell migration distance was estimated by measuring the width of the wound and expressed as a percentage of each control for the mean wound closure area.

In data set [10] the test system is MDA-MB-231 cells. The data set can be described thus: Wound healing (cell migration) assay. Format: cell-based, human. The following applies: 20 µM, 48 h.
Description: as §9, §10, §11

In another data set the test system is colon cancer HCT15. Also on record: method as in PMID 15104487. The following applies: cited from earlier work.
In a further data set the test system is melanoma SK-MEL-2. Also noted: method as in PMID 15104487. The following applies: SK-MEL-2 cells; cited from earlier work.
The next data set relates to CNS cancer XF498. Also on record: method as in PMID 15104487. The following applies: cited from earlier work.
In the next data set the test system is ovarian cancer SK-OV-3. Also on record: method as in PMID 15104487. The following applies: SK-OV-3 cells; cited from earlier work.
Another data set concerns human lung cancer A549. Also on record: method as in PMID 15104487. The following applies: cited from earlier work.
Setting [11] is: HCT 116 cells (colorectal carcinoma).
Setting [12] is: MDA-MB-231 cells (breast cancer).

In the case of `CCCCC/C=C\CCCCCCCCCCCCC(=O)OC[C@@H](C)CCC[C@@H](C)[C@H]1[C@@H](O)[C@H](O)[C@@H]2[C@]1(C)CC[C@@H]1[C@@]3(C)CC[C@H](O)C[C@@H]3[C@@H](O)[C@@H](O)[C@]12O` [(25S)-5α-cholestane-3β,6α,7α,8,15α,16β-hexaol-26-yl 14′Z-eicosenoate], the “inhibitory activity against HepG2 cells” value in data set [1] is reported as “did not possess inhibitory activity”. In addition, the “inhibitory activity against HSV-1” value in data set [2] was “did not possess inhibitory activity”.
On to `CCCCCCC=CCCCCC=CCCCC(=O)OCC(C)CCCC(C)C1C(O)C(O)C2C3CC(O)C4CC(O)CCC4(C)C3CCC12C` [Compound 1, (25S)-5α-cholestane-3β,6β,15α,16β-tetraol-26-yl 5′Z,11′Z-octadecadienoate], for which the values for the inhibition at 20 µM in the data set with HCT 116 cells [3] and with MDA-MB-231 cells [4] were 20% and 17%, respectively. For the same compound, the IC50 was 81 µM with JB6 Cl41 cells, 73 µM in the data set with HCT 116 cells [6] and 74 µM in the data set on MDA-MB-231 cells [7]. In addition, the cytotoxicity at 24 h, 100 µM in data set [5], in [8] (setting [11]) and in [8] (setting [12]) was less than 15% in each case. Besides, the “prevention of cell migration” value in the data set on HCT 116 cells [9] amounted to 36%. Besides, the “prevention of cell migration compared to control” value in the data set on MDA-MB-231 cells [10] came out at 42%.
For `CCCCCCC=CCCCCCCCCCC(=O)OCC(C)CCCC(C)C1C(O)C(O)C2C3CC(O)C4CC(O)CCC4(C)C3CCC12C` [Compound 2, (25S)-5α-cholestane-3β,6β,15α,16β-tetraol-26-yl 11′Z-octadecenoate], the inhibition at 20 µM in the data set with HCT 116 cells [3] stood at 27%; with MDA-MB-231 cells [4] it was 26%. Also, the results for the IC50 in the data set with JB6 Cl41 cells, with HCT 116 cells [6] and with MDA-MB-231 cells [7] were 40 µM, 31 µM and 33 µM, respectively. Moreover, the cytotoxicity at 24 h, 100 µM in [5], in data set [8] (setting [11]) and in data set [8] (setting [12]) was less than 15% throughout. The “prevention of cell migration” value in the data set on HCT 116 cells [9] is on record as 73%. Further, in the data set with MDA-MB-231 cells [10], the “prevention of cell migration compared to control” value was determined as 50%.
In the case of `CCCCCCCCC=CCCCCC=CCCCC(=O)OCC(C)CCCC(C)C1C(O)C(O)C2C3CC(O)C4CC(O)CCC4(C)C3CCC12C` [Compound 3, (25S)-5α-cholestane-3β,6β,15α,16β-tetraol-26-yl 5′Z,11′Z-eicosadienoate], the inhibition at 20 µM in the data set with HCT 116 cells [3] worked out at 18%; with MDA-MB-231 cells [4], 15%. The IC50 turned out to be 79 µM with JB6 Cl41 cells, 71 µM with HCT 116 cells [6] and 73 µM with MDA-MB-231 cells [7]. Besides, the cytotoxicity at 24 h, 100 µM in data set [5], in [8] (setting [11]) and in data set [8] (setting [12]) was less than 15% in each case. Moreover, the “prevention of cell migration” value in the data set with HCT 116 cells [9] is given as 30%. The “inhibitory activity against cell migration (in words)” value in the data set with MDA-MB-231 cells [10] is “moderate inhibitory activity”.
As to `CCCCCCCCCCCCC=CCCCCCC(=O)OCC(C)CCCC(C)C1C(O)C(O)C2C3CC(O)C4CC(O)CCC4(C)C3CCC12C` [Compound 4, (25S)-5α-cholestane-3β,6β,15α,16β-tetraol-26-yl 7′Z-eicosenoate], the inhibition at 20 µM with HCT 116 cells [3] came out at 16%; in the data set with MDA-MB-231 cells [4], 10%. Besides, the cytotoxicity at 24 h, 100 µM in data set [5], in [8] (setting [11]) and in [8] (setting [12]) was less than 15% each time. The “toxicity against cell line” value in the data set on HCT 116 cells [6] (three days of treatment) and in the data set on MDA-MB-231 cells [7] (three days of treatment) was “non-toxic” in each case. The “prevention of cell migration” value in the data set on HCT 116 cells [9] is reported as 24%. For the same compound, in the data set with MDA-MB-231 cells [10], the “inhibitory activity against cell migration (in words)” value is on record as “moderate inhibitory activity”.
Take `CC(C)[C@H](/C=C/[C@@H](C)[C@H]1C[C@@H](O)[C@H]2[C@@H]3C[C@H](O)[C@H]4C[C@@H](O)CC[C@]4(C)[C@H]3CC[C@@]21C)CO` [certonardosterol D2]: the “effective dose that inhibited viability of 50% cells (ED50)” value with colon cancer HCT15 is 0.01 µg/mL; with melanoma SK-MEL-2, 0.09 µg/mL; in the data set on CNS cancer XF498 it was 0.07 µg/mL; in the data set with ovarian cancer SK-OV-3, 0.08 µg/mL; in the data set with human lung cancer A549, 0.15 µg/mL.

What is called inhibition is how much of the control response was suppressed. Read a high inhibition as a strong effect.
